The values below come from patent EP3329923A1, “THE POTENTIAL OF CRBN-INDEPENDENT IMID RESENSITIZATION BY EPIGENETIC THERAPY” (University of Copenhagen, priority 2016, dated 2018).

For experiment [1], the system named is all IMiD-resistant cell lines. Nature of the experiment: Resensitization to IMiDs after 48 hours epidrug pretreatment, apoptosis and cell cycle assays. It counts as cell-based, human. The conditions noted are these: epidrug pretreatment for 48 hours, then no treatment vs. 10 µM lenalidomide or pomalidomide; panobinostat as monotherapy or combined with 5-Azacytidine or EPZ-6438.

The test system of the next experiment is CRBN. Nature of the experiment: CRBN expression by qPCR after epidrug treatment. The note with it: OPM2-LR and OPM2-PR, monotherapy and combination (Figure 13A).
A further experiment deals with EZH2. The note with it: EZH2 over EZH1; cited from earlier work.
For the next experiment, the system named is OPM2-PR. The experiment is described as follows: Apoptosis assay (Annexin V and PI), resensitization to IMiDs. The note with it: epidrug treatment 48 hours, then 10 µM lenalidomide or 10 µM Pomalidomide for 3 days (Figure 11B).
Experiment [2] deals with JJN3. The experiment is described as follows: Apoptosis assay, epigenetic sensitization in intrinsic IMiD resistance. The note with it: JJN3, baseline IMiD resistance (Figure 13C).
Description: (§3) Cell apoptosis was evaluated using Annexin V and PI, with the analysis performed on a FACS-Calibur (BD Bioscience).
(§4) The present inventors then went on to examine whether the combination of epidrugs was effective in intrinsically IMiD-resistant cell lines.
The subject of experiment [3] is KMS12-BM. Described as above. The note with it: baseline IMiD resistance (Figure 13C).
Description: as §3, §4
Experiment [4] has as its system JJN3. The experiment is described as follows: Cell proliferation, XTT dye absorbance (IC50 of IMiDs). The conditions noted are these: Homo sapiens, JJN-3, 72 h, XTT absorbance 3 days after treatment with IMiDs. It counts as cell-based. An excerpt: (§1) A total of seven commercially available human myeloma cell lines (JJN3, OPM2, RPMI-8226, U266, NCI-H929, LP-1, KMS12-BM) were purchased from DSMZ (Leibniz Institute DSMZ-German Collection of Microorganisms and Cell Cultures, Braunschweig, Germany).
(§2) First, the present inventors tested the sensitivity of all HMCL to both lenalidomide and pomalidomide by generating dose-response curves and calculating the IC50 of both drugs for each cell line (given in tables below).

Experiment [5] concerns KMS12-BM. Described as above. It counts as cell-based. The conditions noted are these: Homo sapiens, KMS-12-BM, 72 h, XTT absorbance 3 days after treatment with IMiDs.
Description: as §1, §2

In a further experiment the test system is NCI-H929. Described as above. It counts as cell-based. The note with it: Homo sapiens, 72 h, XTT absorbance 3 days after treatment with IMiDs.
Description: as §1, §2

The test system of the next experiment is OPM2. The description is as above. It counts as cell-based. The note with it: Homo sapiens, OPM-2, 72 h, XTT absorbance 3 days after treatment with IMiDs.
Description: as §1, §2

For the next experiment, the system named is RPMI-8226. The experiment is described as above. It counts as cell-based. The note with it: Homo sapiens, RPMI-8226, 72 h, XTT absorbance 3 days after treatment with IMiDs.
Description: as §1, §2

In the next experiment the test system is U266. The description is as above. It counts as cell-based. The conditions noted are these: Homo sapiens, U-266, 72 h, XTT absorbance 3 days after treatment with IMiDs.
Description: as §1, §2

Description for OPM2-PR: Cell proliferation (and IC50 for each cell line) was assessed by measuring 2,3-Bis-(2-Methoxy-4-Nitro-5-Sulfophenyl)-2H-Tetrazolium-5-Carboxanilide (XTT) dye absorbance 3 days after treatment with IMiDs. Cell apoptosis was evaluated using Annexin V and PI, with the analysis performed on a FACS-Calibur (BD Bioscience).

With `Nc1ncn([C@@H]2O[C@H](CO)[C@@H](O)[C@H]2O)c(=O)n1` [5-Azacytidine, 4-amino-1-beta-D-ribofuranosyl-1,3,5-triazin-2(1H)-one], the “resensitization to IMiDs (IMiD sensitivity)” value in experiment [1] is on record as “did not restore IMiD sensitivity”. Further, in the experiment with CRBN, the “expression of CRBN” value is “remained low and unchanged”.

Consider `Cc1cc(C)c(CNC(=O)c2cc(-c3ccc(CN4CCOCC4)cc3)cc3c2cnn3C2CCCC2)c(=O)[nH]1` [EPZ005687], for which, in the experiment with EZH2, the “selectivity for EZH2 compared to EZH1” value is reported as 50 fold.

Take `CCN(c1cc(-c2ccc(CN3CCOCC3)cc2)cc(C(=O)NCc2c(C)cc(C)[nH]c2=O)c1C)C1CCOCC1` [EPZ-6438, N-((4,6-dimethyl-2-oxo-1,2-dihydropyridin-3-yl)methyl)-5-(ethyl(tetrahydro-2H-pyran-4-yl)amino)-4-methyl-4'-(morpholinomethyl)-[1,1'-biphenyl]-3-carboxamide]: the “resensitization to IMiDs (IMiD sensitivity)” value in experiment [1] is reported as “did not restore IMiD sensitivity”. In the experiment with CRBN, the “expression of CRBN” value is “remained low and unchanged”. Further, the “resensitization to lenalidomide and pomalidomide (apoptosis)” value with OPM2-PR is “minor resensitization effect”. Further, the “sensitization to lenalidomide and pomalidomide” value in the experiment with JJN3 [2] was “able to render the cells sensitive to both lenalidomide and pomalidomide”; in the experiment with KMS12-BM [3], “able to render the cells sensitive to both lenalidomide and pomalidomide”.

As to `Nc1cccc2c1CN(C1CCC(=O)NC1=O)C2=O` (centres unmarked) [Lenalidomide], the IC50 came out at 136 µM with JJN3 [4]; 20.8 µM in the experiment on KMS12-BM [5]; 0.563 µM in the experiment on NCI-H929; 5.01 µM in the experiment with OPM2; 118 µM in the experiment with RPMI-8226; 68.1 µM with U266.

On to `Nc1cccc2c1C(=O)N(C1CCC(=O)NC1=O)C2=O` (centres unmarked) [Pomalidomide], for which the IC50 amounted to 87.3 µM in the experiment on JJN3 [4]; 15.2 µM in the experiment on KMS12-BM [5]; 0.003 µM in the experiment on NCI-H929; 2.01 µM in the experiment on OPM2; 98.3 µM with RPMI-8226; 60.5 µM in the experiment on U266.
